Test results from publication PMC6437697 (Journal of Medicinal Chemistry, 2019).

Key:
Assay in all cases: KINOMEscan
Assay type in all cases: binding
Conditions in all cases: read-out: % control activity remaining
EPHA2 = molecular target: T1, EPHA2 (Homo sapiens, UniProt P29317)
T1 construct: purchased Eurofins DiscoverX KINOMEscan

EPHA7 = molecular target: T2, EPHA7 (Homo sapiens, UniProt Q15375)
T2 construct: purchased Eurofins DiscoverX KINOMEscan

MEK3 = molecular target: T3, MEK3 (Homo sapiens, UniProt P46734)
T3 construct: purchased Eurofins DiscoverX KINOMEscan
T3 sequence (P46734 1-347): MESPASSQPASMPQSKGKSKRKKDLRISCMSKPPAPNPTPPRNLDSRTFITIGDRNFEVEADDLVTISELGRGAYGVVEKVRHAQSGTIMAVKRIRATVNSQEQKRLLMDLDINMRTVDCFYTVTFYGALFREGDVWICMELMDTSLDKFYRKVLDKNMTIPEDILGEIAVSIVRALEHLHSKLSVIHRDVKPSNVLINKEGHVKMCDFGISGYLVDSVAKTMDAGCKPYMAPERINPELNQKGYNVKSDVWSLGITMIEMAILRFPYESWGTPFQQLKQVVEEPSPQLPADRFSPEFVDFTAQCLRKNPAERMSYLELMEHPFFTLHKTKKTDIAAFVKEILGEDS

PRKCE = molecular target: T4, PRKCE (Homo sapiens, UniProt Q02156)
T4 construct: purchased Eurofins DiscoverX KINOMEscan
T4 sequence (Q02156 1-737): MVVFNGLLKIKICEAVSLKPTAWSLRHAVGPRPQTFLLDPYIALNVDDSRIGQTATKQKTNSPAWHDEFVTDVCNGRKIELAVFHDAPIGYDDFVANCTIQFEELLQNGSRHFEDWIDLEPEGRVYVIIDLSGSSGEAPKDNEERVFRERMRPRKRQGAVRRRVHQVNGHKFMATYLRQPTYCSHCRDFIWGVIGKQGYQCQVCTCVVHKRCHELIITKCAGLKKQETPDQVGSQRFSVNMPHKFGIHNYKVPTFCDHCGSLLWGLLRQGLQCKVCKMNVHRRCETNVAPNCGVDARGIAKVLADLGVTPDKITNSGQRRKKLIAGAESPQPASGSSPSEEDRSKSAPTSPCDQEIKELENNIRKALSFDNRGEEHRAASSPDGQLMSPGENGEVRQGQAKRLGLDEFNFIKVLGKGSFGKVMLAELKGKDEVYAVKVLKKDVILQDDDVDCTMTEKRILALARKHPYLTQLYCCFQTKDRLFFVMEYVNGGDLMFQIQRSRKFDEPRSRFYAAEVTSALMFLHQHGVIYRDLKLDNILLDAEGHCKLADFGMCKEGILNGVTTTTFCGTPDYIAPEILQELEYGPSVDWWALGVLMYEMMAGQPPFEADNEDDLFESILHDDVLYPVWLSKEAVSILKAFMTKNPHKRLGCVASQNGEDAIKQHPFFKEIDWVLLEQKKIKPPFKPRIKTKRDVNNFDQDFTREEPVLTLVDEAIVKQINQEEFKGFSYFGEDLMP

SLK = molecular target: T5, SLK (Homo sapiens, UniProt Q9H2G2)
T5 construct: purchased Eurofins DiscoverX KINOMEscan
T5 sequence (Q9H2G2 whole entry, looked up): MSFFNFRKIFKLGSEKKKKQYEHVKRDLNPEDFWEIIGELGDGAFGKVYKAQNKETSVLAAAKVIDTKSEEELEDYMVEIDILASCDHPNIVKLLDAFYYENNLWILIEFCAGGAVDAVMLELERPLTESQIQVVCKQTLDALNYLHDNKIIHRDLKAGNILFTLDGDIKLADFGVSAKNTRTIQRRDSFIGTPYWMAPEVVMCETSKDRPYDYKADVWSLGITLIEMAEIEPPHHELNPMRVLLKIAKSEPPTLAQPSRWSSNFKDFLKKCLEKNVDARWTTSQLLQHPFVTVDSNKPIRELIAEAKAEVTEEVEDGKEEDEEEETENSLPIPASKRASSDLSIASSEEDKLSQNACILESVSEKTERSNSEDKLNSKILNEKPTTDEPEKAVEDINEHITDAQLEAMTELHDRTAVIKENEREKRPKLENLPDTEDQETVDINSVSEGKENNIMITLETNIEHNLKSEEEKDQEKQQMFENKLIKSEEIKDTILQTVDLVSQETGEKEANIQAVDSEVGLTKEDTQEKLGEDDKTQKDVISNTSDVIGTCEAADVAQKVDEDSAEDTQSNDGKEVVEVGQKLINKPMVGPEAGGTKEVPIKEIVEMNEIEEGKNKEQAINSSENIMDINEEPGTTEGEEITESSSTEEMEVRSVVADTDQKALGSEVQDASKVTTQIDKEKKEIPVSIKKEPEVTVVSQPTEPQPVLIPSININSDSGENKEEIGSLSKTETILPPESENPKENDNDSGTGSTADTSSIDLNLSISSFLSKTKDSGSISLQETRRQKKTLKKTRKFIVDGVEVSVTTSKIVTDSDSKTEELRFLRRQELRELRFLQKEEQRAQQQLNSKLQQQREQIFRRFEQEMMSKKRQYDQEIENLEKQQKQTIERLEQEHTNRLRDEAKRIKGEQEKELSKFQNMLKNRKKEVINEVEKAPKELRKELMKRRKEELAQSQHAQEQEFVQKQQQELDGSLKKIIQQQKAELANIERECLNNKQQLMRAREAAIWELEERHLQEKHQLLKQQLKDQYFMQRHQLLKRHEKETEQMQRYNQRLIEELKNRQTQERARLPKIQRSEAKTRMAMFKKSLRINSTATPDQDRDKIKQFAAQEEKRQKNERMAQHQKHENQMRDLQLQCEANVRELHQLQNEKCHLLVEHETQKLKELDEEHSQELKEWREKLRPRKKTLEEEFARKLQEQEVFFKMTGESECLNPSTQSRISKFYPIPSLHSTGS

SNRK = molecular target: T6, SNRK (Homo sapiens, UniProt Q9NRH2)
T6 construct: purchased Eurofins DiscoverX KINOMEscan
T6 sequence (Q9NRH2 1-765): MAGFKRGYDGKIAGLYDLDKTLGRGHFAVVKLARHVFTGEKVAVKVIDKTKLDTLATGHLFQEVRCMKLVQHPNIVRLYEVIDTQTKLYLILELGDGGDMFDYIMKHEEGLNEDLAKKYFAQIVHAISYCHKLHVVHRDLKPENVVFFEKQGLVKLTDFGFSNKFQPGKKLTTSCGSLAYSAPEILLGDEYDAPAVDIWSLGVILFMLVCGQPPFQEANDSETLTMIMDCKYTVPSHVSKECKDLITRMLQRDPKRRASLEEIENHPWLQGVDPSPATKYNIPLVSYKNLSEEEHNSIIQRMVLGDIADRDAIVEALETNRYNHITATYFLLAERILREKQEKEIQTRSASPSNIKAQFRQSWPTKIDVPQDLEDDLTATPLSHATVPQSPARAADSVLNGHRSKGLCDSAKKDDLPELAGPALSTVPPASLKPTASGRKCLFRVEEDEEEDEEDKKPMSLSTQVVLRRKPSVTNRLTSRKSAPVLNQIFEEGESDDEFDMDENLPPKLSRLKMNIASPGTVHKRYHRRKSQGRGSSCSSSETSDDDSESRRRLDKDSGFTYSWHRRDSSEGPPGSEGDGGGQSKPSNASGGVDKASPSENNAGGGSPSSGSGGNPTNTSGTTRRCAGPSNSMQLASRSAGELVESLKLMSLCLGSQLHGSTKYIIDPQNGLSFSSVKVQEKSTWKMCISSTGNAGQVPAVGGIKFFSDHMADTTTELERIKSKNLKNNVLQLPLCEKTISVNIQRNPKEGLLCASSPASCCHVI

SYK = molecular target: T7, SYK (Homo sapiens, UniProt P43405)
T7 construct: purchased Eurofins DiscoverX KINOMEscan

T1 sequence (P29317 24-976): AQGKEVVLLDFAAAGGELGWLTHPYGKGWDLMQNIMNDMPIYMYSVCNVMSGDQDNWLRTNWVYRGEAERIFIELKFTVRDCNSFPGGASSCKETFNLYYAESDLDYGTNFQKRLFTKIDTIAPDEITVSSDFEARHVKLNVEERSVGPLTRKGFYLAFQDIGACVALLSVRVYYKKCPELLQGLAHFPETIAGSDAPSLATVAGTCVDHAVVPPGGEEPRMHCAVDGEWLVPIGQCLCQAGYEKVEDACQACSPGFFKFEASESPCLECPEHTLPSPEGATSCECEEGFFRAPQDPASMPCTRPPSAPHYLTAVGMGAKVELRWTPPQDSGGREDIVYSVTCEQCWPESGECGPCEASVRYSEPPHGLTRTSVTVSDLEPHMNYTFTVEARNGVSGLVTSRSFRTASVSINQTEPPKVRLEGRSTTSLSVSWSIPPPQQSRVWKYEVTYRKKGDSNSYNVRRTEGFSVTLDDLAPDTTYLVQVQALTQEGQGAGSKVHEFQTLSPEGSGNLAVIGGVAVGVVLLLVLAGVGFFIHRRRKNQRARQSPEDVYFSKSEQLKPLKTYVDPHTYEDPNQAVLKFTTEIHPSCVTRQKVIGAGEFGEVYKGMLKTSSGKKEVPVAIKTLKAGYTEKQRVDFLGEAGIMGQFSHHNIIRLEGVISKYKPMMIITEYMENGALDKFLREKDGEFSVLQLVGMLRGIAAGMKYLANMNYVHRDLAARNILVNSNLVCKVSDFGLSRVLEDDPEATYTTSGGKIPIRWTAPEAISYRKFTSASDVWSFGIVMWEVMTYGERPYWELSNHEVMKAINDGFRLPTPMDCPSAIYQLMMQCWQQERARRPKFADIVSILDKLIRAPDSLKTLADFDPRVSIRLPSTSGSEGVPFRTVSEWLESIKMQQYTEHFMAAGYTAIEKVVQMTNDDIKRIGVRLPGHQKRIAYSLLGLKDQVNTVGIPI
T2 sequence (Q15375 28-998): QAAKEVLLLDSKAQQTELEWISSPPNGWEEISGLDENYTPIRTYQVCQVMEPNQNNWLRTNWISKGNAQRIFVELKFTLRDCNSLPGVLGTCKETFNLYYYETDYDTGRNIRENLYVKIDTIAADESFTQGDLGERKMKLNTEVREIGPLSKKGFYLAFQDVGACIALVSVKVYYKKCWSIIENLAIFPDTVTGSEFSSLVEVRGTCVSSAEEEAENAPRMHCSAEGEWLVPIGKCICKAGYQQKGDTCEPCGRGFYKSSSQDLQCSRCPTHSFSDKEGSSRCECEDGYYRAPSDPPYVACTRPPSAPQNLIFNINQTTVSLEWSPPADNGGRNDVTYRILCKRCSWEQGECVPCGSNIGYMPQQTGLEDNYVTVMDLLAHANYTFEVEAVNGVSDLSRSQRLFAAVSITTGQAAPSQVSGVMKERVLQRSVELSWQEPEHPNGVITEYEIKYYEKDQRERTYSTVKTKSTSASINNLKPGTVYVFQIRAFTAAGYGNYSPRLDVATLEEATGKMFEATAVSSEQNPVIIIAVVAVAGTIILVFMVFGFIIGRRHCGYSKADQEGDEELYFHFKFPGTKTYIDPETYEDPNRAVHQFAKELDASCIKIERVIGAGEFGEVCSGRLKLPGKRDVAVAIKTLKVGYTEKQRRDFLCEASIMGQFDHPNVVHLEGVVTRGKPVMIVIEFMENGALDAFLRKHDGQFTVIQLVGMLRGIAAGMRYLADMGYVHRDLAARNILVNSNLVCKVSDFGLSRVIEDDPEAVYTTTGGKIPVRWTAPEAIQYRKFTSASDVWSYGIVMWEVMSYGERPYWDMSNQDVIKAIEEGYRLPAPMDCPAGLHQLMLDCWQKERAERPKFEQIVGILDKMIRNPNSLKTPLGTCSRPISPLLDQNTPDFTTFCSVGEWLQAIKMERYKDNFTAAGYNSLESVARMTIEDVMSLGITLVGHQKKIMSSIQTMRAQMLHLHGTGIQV

CN1CCC(CNc2cc(Cl)nn3c(-c4cc5nc(Nc6ccccc6)[nH]c5cc4F)cnc23)CC1 [compound 31, 6-Chloro-3-(6-fluoro-2-(phenylamino)-1H-benzo[d]imidazol-5-yl)-N-((1-methylpiperidin-4-yl)methyl)imidazo[1,2-b]pyridazin-8-amine]
remaining binding at 1 µM (EPHA2): 94% | remaining binding at 1 µM (EPHA7): 94% | remaining binding at 1 µM (MEK3): 88% | remaining binding at 1 µM (PRKCE): 86% | remaining binding at 1 µM (SLK): 80% | remaining binding at 1 µM (SNRK): 79% | remaining binding at 1 µM (SYK): 92%

O=C(CN1CCOCC1)N[C@H]1CC[C@H](Nc2cc(Cl)nn3c(-c4ccc5[nH]ncc5c4)cnc23)CC1 [compound 26]
remaining binding at 1 µM (EPHA2): 99% | remaining binding at 1 µM (EPHA7): 97% | remaining binding at 1 µM (MEK3): 100% | remaining binding at 1 µM (PRKCE): 96% | remaining binding at 1 µM (SLK): 98% | remaining binding at 1 µM (SNRK): 100% | remaining binding at 1 µM (SYK): 100%

Clc1cc(NCC2CC2)c2ncc(-c3ccc4[nH]ncc4c3)n2n1 [compound 2, 6-Chloro-N-(cyclopropylmethyl)-3-(1H-indazol-5-yl)imidazo[1,2-b]pyridazin-8-amine]
remaining binding at 1 µM (EPHA2): 94% | remaining binding at 1 µM (EPHA7): 94% | remaining binding at 1 µM (MEK3): 87% | remaining binding at 1 µM (PRKCE): 100% | remaining binding at 1 µM (SLK): 100% | remaining binding at 1 µM (SNRK): 99% | remaining binding at 1 µM (SYK): 97%
